Key:
NCI-H522 = assay: NCI single dose (10 µM) SRB screen; assay type: cell-based, human; settings: non-small cell lung cancer, 48 h
IGROV1 = assay: NCI single dose (10 µM) SRB screen; assay type: cell-based, human; settings: ovarian cancer, 48 h
Bacillus subtilis = assay: Agar well diffusion method; settings: relative to ciprofloxacin
SK-OV-3 = assay: NCI single dose (10 µM) SRB screen; assay type: cell-based, human; settings: ovarian cancer, 48 h
NCI-H322M = assay: NCI single dose (10 µM) SRB screen; assay type: cell-based; settings: non-small cell lung cancer, 48 h
SF-295 = assay: NCI single dose (10 µM) SRB screen; assay type: cell-based, human; settings: CNS cancer, 48 h
SK-MEL-28 = assay: NCI single dose (10 µM) SRB screen; assay type: cell-based, human; settings: melanoma, 48 h
K-562 = assay: NCI single dose (10 µM) SRB screen; assay type: cell-based, human; settings: leukaemia, 48 h
SF-268 = assay: NCI single dose (10 µM) SRB screen; assay type: cell-based, human; settings: CNS cancer, 48 h
SN12C = assay: NCI single dose (10 µM) SRB screen; assay type: cell-based, human; settings: renal cancer, 48 h
MDA-MB-468 = assay: NCI single dose (10 µM) SRB screen; assay type: cell-based, human; settings: breast cancer, 48 h
OVCAR-3 = assay: NCI single dose (10 µM) SRB screen; assay type: cell-based, human; settings: ovarian cancer, 48 h
UACC-62 = assay: NCI single dose (10 µM) SRB screen; assay type: cell-based, human; settings: melanoma, 48 h
NCI/ADR-RES = assay: NCI single dose (10 µM) SRB screen; assay type: cell-based, human; settings: ovarian cancer, 48 h
Pseudomonas aeruginosa = assay: Agar well diffusion method; settings: relative to ciprofloxacin
MDA-MB-435 = assay: NCI single dose (10 µM) SRB screen; assay type: cell-based, human; settings: melanoma, 48 h
SK-MEL-2 = assay: NCI single dose (10 µM) SRB screen; assay type: cell-based, human; settings: melanoma, 48 h
BT-549 = assay: NCI single dose (10 µM) SRB screen; assay type: cell-based, human; settings: breast cancer, 48 h
CAKI-1 = assay: NCI single dose (10 µM) SRB screen; assay type: cell-based, human; settings: renal cancer, 48 h
SNB-19 = assay: NCI single dose (10 µM) SRB screen; assay type: cell-based, human; settings: CNS cancer, 48 h
786-0 = assay: NCI single dose (10 µM) SRB screen; assay type: cell-based, human; settings: renal cancer, 48 h
UO-31 = assay: NCI single dose (10 µM) SRB screen; assay type: cell-based, human; settings: renal cancer, 48 h
TK-10 = assay: NCI single dose (10 µM) SRB screen; assay type: cell-based, human; settings: renal cancer, 48 h
MALME-3M = assay: NCI single dose (10 µM) SRB screen; assay type: cell-based, human; settings: melanoma, 48 h
CCRF-CEM = assay: NCI single dose (10 µM) SRB screen; assay type: cell-based, human; settings: leukaemia, 48 h
Staphylococcus aureus = assay: Agar well diffusion method; settings: relative to ciprofloxacin
HOP-92 = assay: NCI single dose (10 µM) SRB screen; assay type: cell-based, human; settings: non-small cell lung cancer, 48 h
A498 = assay: NCI single dose (10 µM) SRB screen; assay type: cell-based, human; settings: renal cancer, 48 h
HS578T = assay: NCI single dose (10 µM) SRB screen; assay type: cell-based, human; settings: breast cancer, 48 h
OVCAR-4 = assay: NCI single dose (10 µM) SRB screen; assay type: cell-based, human; settings: ovarian cancer, 48 h
NCI-H23 = assay: NCI single dose (10 µM) SRB screen; assay type: cell-based, human; settings: non-small cell lung cancer, 48 h
U251 = assay: NCI single dose (10 µM) SRB screen; assay type: cell-based, human; settings: CNS cancer, 48 h
KM12 = assay: NCI single dose (10 µM) SRB screen; assay type: cell-based, human; settings: colon cancer, 48 h
PC-3 = assay: NCI single dose (10 µM) SRB screen; assay type: cell-based, human; settings: prostate cancer, 48 h
SNB-75 = assay: NCI single dose (10 µM) SRB screen; assay type: cell-based, human; settings: CNS cancer, 48 h
HL-60(TB) = assay: NCI single dose (10 µM) SRB screen; assay type: cell-based, human; settings: leukaemia, 48 h
SR = assay: NCI single dose (10 µM) SRB screen; assay type: cell-based, human; settings: leukaemia, 48 h
COLO 205 = assay: NCI single dose (10 µM) SRB screen; assay type: cell-based, human; settings: colon cancer, 48 h
UACC-257 = assay: NCI single dose (10 µM) SRB screen; assay type: cell-based, human; settings: melanoma, 48 h
Candida albicans = assay: Agar well diffusion method; settings: relative to clotrimazole
T-47D = assay: NCI single dose (10 µM) SRB screen; assay type: cell-based, human; settings: breast cancer, 48 h
RPMI-8226 = assay: NCI single dose (10 µM) SRB screen; assay type: cell-based, human; settings: leukaemia, 48 h
SF-539 = assay: NCI single dose (10 µM) SRB screen; assay type: cell-based, human; settings: CNS cancer, 48 h
NCI-H460 = assay: NCI single dose (10 µM) SRB screen; assay type: cell-based, human; settings: non-small cell lung cancer, 48 h
HOP-62 = assay: NCI single dose (10 µM) SRB screen; assay type: cell-based, human; settings: non-small cell lung cancer, 48 h
MCF7 = assay: NCI single dose (10 µM) SRB screen; assay type: cell-based, human; settings: breast cancer, 48 h
EKVX = assay: NCI single dose (10 µM) SRB screen; assay type: cell-based, human; settings: non-small cell lung cancer, 48 h
OVCAR-8 = assay: NCI single dose (10 µM) SRB screen; assay type: cell-based, human; settings: ovarian cancer, 48 h
A549/ATCC = assay: NCI single dose (10 µM) SRB screen; assay type: cell-based, human; settings: non-small cell lung cancer, 48 h
RXF 393 = assay: NCI single dose (10 µM) SRB screen; assay type: cell-based, human; settings: renal cancer, 48 h
NCI 60 cancer cell lines = assay: NCI single dose (10 µM) SRB screen, mean over panel; assay type: cell-based, human; settings: mean over 60 cell lines, 48 h
SW-620 = assay: NCI single dose (10 µM) SRB screen; assay type: cell-based, human; settings: colon cancer, 48 h
HCC-2998 = assay: NCI single dose (10 µM) SRB screen; assay type: cell-based, human; settings: colon cancer, 48 h
HT29 = assay: NCI single dose (10 µM) SRB screen; assay type: cell-based, human; settings: colon cancer, 48 h
Escherichia coli = assay: Agar well diffusion method; settings: relative to ciprofloxacin
ACHN = assay: NCI single dose (10 µM) SRB screen; assay type: cell-based, human; settings: renal cancer, 48 h
MOLT-4 = assay: NCI single dose (10 µM) SRB screen; assay type: cell-based, human; settings: leukaemia, 48 h
SK-MEL-5 = assay: NCI single dose (10 µM) SRB screen; assay type: cell-based, human; settings: melanoma, 48 h
OVCAR-5 = assay: NCI single dose (10 µM) SRB screen; assay type: cell-based, human; settings: ovarian cancer, 48 h
M14 = assay: NCI single dose (10 µM) SRB screen; assay type: cell-based, human; settings: melanoma, 48 h
MDA-MB-231 = assay: NCI single dose (10 µM) SRB screen; assay type: cell-based, human; settings: breast cancer, 48 h
HCT-15 = assay: NCI single dose (10 µM) SRB screen; assay type: cell-based, human; settings: colon cancer, 48 h
NCI-H226 = assay: NCI single dose (10 µM) SRB screen; assay type: cell-based, human; settings: non-small cell lung cancer, 48 h
Aspergillus flavus = assay: Agar well diffusion method; settings: relative to clotrimazole
DU-145 = assay: NCI single dose (10 µM) SRB screen; assay type: cell-based, human; settings: prostate cancer, 48 h
LOX IMVI = assay: NCI single dose (10 µM) SRB screen; assay type: cell-based, human; settings: melanoma, 48 h
HCT-116 = assay: NCI single dose (10 µM) SRB screen; assay type: cell-based, human; settings: colon cancer, 48 h

Structure (SMILES): CC1=C(C(=O)OC(C)(C)C)C(c2cccc(C#N)c2)C(C(=O)OC(C)(C)C)=C(C)N1 [Compound 1e, Di-tert-butyl 4-(3-cyanophenyl)-2,6-dimethyl-1,4-dihydropyridine-3,5-dicarboxylate]
- GI% NCI-H522 (NCI-H522): 17%
- GI% IGROV1 (IGROV1): – (Only GI% ≥ 10 are shown)
- % activity index, B. subtilis (Bacillus subtilis): – (Values below 25 are of limited value and not shown as they refer either to inactive or non-diffusing compounds)
- GI% SK-OV-3 (SK-OV-3): – (Only GI% ≥ 10 are shown)
- GI% NCI-H322M (NCI-H322M): – (Only GI% ≥ 10 are shown)
- GI% SF-295 (SF-295): 27%
- GI% SK-MEL-28 (SK-MEL-28): – (Only GI% ≥ 10 are shown)
- GI% K-562 (K-562): 34%
- GI% SF-268 (SF-268): 11%
- GI% SN12C (SN12C): – (Only GI% ≥ 10 are shown)
- GI% MDA-MB-468 (MDA-MB-468): 27%
- GI% OVCAR-3 (OVCAR-3): – (Only GI% ≥ 10 are shown)
- GI% UACC-62 (UACC-62): 26%
- GI% NCI/ADR-RES (NCI/ADR-RES): – (Only GI% ≥ 10 are shown)
- % activity index, P. aeruginosa (Pseudomonas aeruginosa): – (Values below 25 are of limited value and not shown as they refer either to inactive or non-diffusing compounds)
- GI% MDA-MB-435 (MDA-MB-435): – (Only GI% ≥ 10 are shown)
- GI% SK-MEL-2 (SK-MEL-2): – (Only GI% ≥ 10 are shown)
- GI% BT-549 (BT-549): – (Only GI% ≥ 10 are shown)
- GI% CAKI-1 (CAKI-1): 32%
- GI% SNB-19 (SNB-19): – (Only GI% ≥ 10 are shown)
- GI% 786-0 (786-0): 18%
- GI% UO-31 (UO-31): 25%
- GI% TK-10 (TK-10): – (Only GI% ≥ 10 are shown)
- GI% MALME-3M (MALME-3M): – (Only GI% ≥ 10 are shown)
- melting point: 166 to 168 °C
- GI% CCRF-CEM (CCRF-CEM): 16%
- % activity index, S. aureus (Staphylococcus aureus): – (Values below 25 are of limited value and not shown as they refer either to inactive or non-diffusing compounds)
- GI% HOP-92 (HOP-92): 30%
- GI% A498 (A498): – (Only GI% ≥ 10 are shown)
- GI% HS578T (HS578T): – (Only GI% ≥ 10 are shown)
- GI% OVCAR-4 (OVCAR-4): – (Only GI% ≥ 10 are shown)
- GI% NCI-H23 (NCI-H23): 13%
- GI% U251 (U251): – (Only GI% ≥ 10 are shown)
- GI% KM12 (KM12): 11%
- GI% PC-3 (PC-3): 48%
- GI% SNB-75 (SNB-75): 38%
- GI% HL-60(TB) (HL-60(TB)): 41%
- GI% SR (SR): 42%
- GI% COLO 205 (COLO 205): – (Only GI% ≥ 10 are shown)
- GI% UACC-257 (UACC-257): 16%
- % activity index, C. albicans (Candida albicans): – (Values below 25 are of limited value and not shown as they refer either to inactive or non-diffusing compounds)
- GI% T-47D (T-47D): 53%
- GI% RPMI-8226 (RPMI-8226): 39%
- GI% SF-539 (SF-539): 10%
- GI% NCI-H460 (NCI-H460): – (Only GI% ≥ 10 are shown)
- GI% HOP-62 (HOP-62): – (Only GI% ≥ 10 are shown)
- GI% MCF7 (MCF7): 34%
- GI% EKVX (EKVX): 20%
- GI% OVCAR-8 (OVCAR-8): – (Only GI% ≥ 10 are shown)
- GI% A549/ATCC (A549/ATCC): 20%
- GI% RXF 393 (RXF 393): 33%
- Mean GI% (NCI 60 cancer cell lines): 14%
- GI% SW-620 (SW-620): – (Only GI% ≥ 10 are shown)
- GI% HCC-2998 (HCC-2998): – (Only GI% ≥ 10 are shown)
- GI% HT29 (HT29): 13%
- % activity index, E. coli (Escherichia coli): – (Values below 25 are of limited value and not shown as they refer either to inactive or non-diffusing compounds)
- GI% ACHN (ACHN): 14%
- GI% MOLT-4 (MOLT-4): 39%
- GI% SK-MEL-5 (SK-MEL-5): 14%
- GI% OVCAR-5 (OVCAR-5): – (Only GI% ≥ 10 are shown)
- GI% M14 (M14): – (Only GI% ≥ 10 are shown)
- GI% MDA-MB-231 (MDA-MB-231): 14%
- GI% HCT-15 (HCT-15): 19%
- GI% NCI-H226 (NCI-H226): 22%
- % activity index, A. flavus (Aspergillus flavus): – (Values below 25 are of limited value and not shown as they refer either to inactive or non-diffusing compounds)
- GI% DU-145 (DU-145): – (Only GI% ≥ 10 are shown)
- GI% LOX IMVI (LOX IMVI): 10%
- GI% HCT-116 (HCT-116): 35%

— publication PMC9481151, “Discovery of new symmetrical and asymmetrical nitrile-containing 1,4-dihydropyridine derivatives as dual kinases and P-glycoprotein inhibitors: synthesis, in vitro assays, and in silico studies” (Journal of Enzyme Inhibition and Medicinal Chemistry, 2022)
